This is an account of results in the supplement of paper PMC10307832.

Holding throughout (assay): relative viability (nuclei count vs DMSO), 5 days (fraction); higher = more cells survive
Compound in the experiment “FH535 + Palbociclib”: CC1=C(C=CC(=C1)[N+](=O)[O-])NS(=O)(=O)C2=C(C=CC(=C2)Cl)Cl [FH535] + CC(=O)c1c(C)c2cnc(Nc3ccc(N4CCNCC4)cn3)nc2n(C2CCCC2)c1=O [Palbociclib] (partner 0.5 µM)
The procedure, abridged: (§1)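 Five library-drug doses in √10 steps were combined with a fixed anchor-drug dose, or a single drug was given alone, by pin tool to lung cancer cell lines in 1536-well plates the day after seeding. Nuclei were stained and counted after 5 days. Relative viability is the nuclei count in treated wells over that in vehicle wells, taken as the median of duplicate plates.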

Compound in the experiment “FH535 + Luminespib”: CC1=C(C=CC(=C1)[N+](=O)[O-])NS(=O)(=O)C2=C(C=CC(=C2)Cl)Cl [FH535] + CCNC(=O)c1noc(-c2cc(C(C)C)c(O)cc2O)c1-c1ccc(CN2CCOCC2)cc1 [Luminespib] (partner 0.01 µM)
The procedure, abridged: as §1

Compound in the experiment “FH535 + Linsitinib”: CC1=C(C=CC(=C1)[N+](=O)[O-])NS(=O)(=O)C2=C(C=CC(=C2)Cl)Cl [FH535] + C[C@]1(O)C[C@@H](c2nc(-c3ccc4ccc(-c5ccccc5)nc4c3)c3c(N)nccn32)C1 [Linsitinib] (partner 1 µM)
The method, boiled down:
as §1

Compound in the experiment “FH535 + AZD7762”: CC1=C(C=CC(=C1)[N+](=O)[O-])NS(=O)(=O)C2=C(C=CC(=C2)Cl)Cl [FH535] + NC(=O)Nc1cc(-c2cccc(F)c2)sc1C(=O)N[C@H]1CCCNC1 [AZD7762] (partner 0.2 µM)
The procedure, abridged:
as §1

Compound in the experiment “FH535 + Olaparib”: CC1=C(C=CC(=C1)[N+](=O)[O-])NS(=O)(=O)C2=C(C=CC(=C2)Cl)Cl [FH535] + O=C(c1cc(Cc2n[nH]c(=O)c3ccccc23)ccc1F)N1CCN(C(=O)C2CC2)CC1 [Olaparib] (partner 8 µM)
The method, boiled down:
as §1

As for NCI-H2347, the relative viability was 0.456 in the experiment with FH535 + Palbociclib (first compound 0.04 µM); 0.342 with FH535 + Palbociclib (first compound 0.1265 µM); 0.416 with FH535 + Palbociclib (first compound 0.4 µM); 0.397 with FH535 + Palbociclib (first compound 1.265 µM); 0.617 with FH535 + Luminespib (first compound 0.04 µM); 0.333 in the experiment with FH535 + Luminespib (first compound 0.1265 µM). Moreover, the relative viability in the experiment with FH535 + Luminespib (first compound 0.4 µM) was 0.39; with FH535 + Luminespib (first compound 1.265 µM) it was 0.752; with FH535 + Linsitinib (first compound 0.04 µM), 1.02; with FH535 + Linsitinib (first compound 0.1265 µM) it was 1.05; in the experiment with FH535 + Linsitinib (first compound 0.4 µM) it was 0.902; in the experiment with FH535 + Linsitinib (first compound 1.265 µM) it was 0.812. Also, the relative viability with FH535 + AZD7762 (first compound 0.04 µM) turned out to be 0.696; with FH535 + AZD7762 (first compound 0.1265 µM), 0.819; with FH535 + AZD7762 (first compound 0.4 µM), 0.764; with FH535 + AZD7762 (first compound 1.265 µM), 0.761; with FH535 + Olaparib (first compound 0.04 µM), 0.525; with FH535 + Olaparib (first compound 0.1265 µM) it was 0.595. Also, the figures for the relative viability with FH535 + Olaparib (first compound 0.4 µM) and with FH535 + Olaparib (first compound 1.265 µM) were 0.553 and 0.498, respectively.

Regarding NCI-H2405, the relative viability worked out at 0.5 with FH535 + Palbociclib (first compound 0.04 µM); 0.504 with FH535 + Palbociclib (first compound 0.1265 µM); 0.492 with FH535 + Palbociclib (first compound 0.4 µM); 0.354 in the experiment with FH535 + Palbociclib (first compound 1.265 µM); 0.76 in the experiment with FH535 + Luminespib (first compound 0.04 µM); 0.752 with FH535 + Luminespib (first compound 0.1265 µM). For the same cell line, the relative viability with FH535 + Luminespib (first compound 0.4 µM) came out at 0.602; with FH535 + Luminespib (first compound 1.265 µM), 0.605; with FH535 + Linsitinib (first compound 0.04 µM), 0.848; in the experiment with FH535 + Linsitinib (first compound 0.1265 µM), 1.01; with FH535 + Linsitinib (first compound 0.4 µM) it was 0.953; in the experiment with FH535 + Linsitinib (first compound 1.265 µM), 0.76. Further, the relative viability with FH535 + AZD7762 (first compound 0.04 µM) turned out to be 0.665; with FH535 + AZD7762 (first compound 0.1265 µM), 0.794; with FH535 + AZD7762 (first compound 0.4 µM) it was 0.641; in the experiment with FH535 + AZD7762 (first compound 1.265 µM), 0.5; in the experiment with FH535 + Olaparib (first compound 0.04 µM) it was 0.882; with FH535 + Olaparib (first compound 0.1265 µM), 0.832. The relative viability stood at 0.765 with FH535 + Olaparib (first compound 0.4 µM) and 0.524 in the experiment with FH535 + Olaparib (first compound 1.265 µM).

NCI-H3122: the relative viability with FH535 + Palbociclib (first compound 0.04 µM) is 0.169; in the experiment with FH535 + Palbociclib (first compound 0.1265 µM), 0.218; in the experiment with FH535 + Palbociclib (first compound 0.4 µM), 0.195; in the experiment with FH535 + Palbociclib (first compound 1.265 µM), 0.187; with FH535 + Luminespib (first compound 0.04 µM) it was 0.0802; with FH535 + Luminespib (first compound 0.1265 µM), 0.122. Besides, the relative viability with FH535 + Luminespib (first compound 0.4 µM) came to 0.0923; in the experiment with FH535 + Luminespib (first compound 1.265 µM), 0.0705; with FH535 + Linsitinib (first compound 0.04 µM) it was 0.989; in the experiment with FH535 + Linsitinib (first compound 0.1265 µM) it was 1.07; in the experiment with FH535 + Linsitinib (first compound 0.4 µM) it was 0.977; in the experiment with FH535 + Linsitinib (first compound 1.265 µM) it was 0.895. Further, the relative viability in the experiment with FH535 + AZD7762 (first compound 0.04 µM) was found to be 1.03; in the experiment with FH535 + AZD7762 (first compound 0.1265 µM), 0.98; in the experiment with FH535 + AZD7762 (first compound 0.4 µM) it was 0.984; with FH535 + AZD7762 (first compound 1.265 µM) it was 0.933; in the experiment with FH535 + Olaparib (first compound 0.04 µM), 0.631; with FH535 + Olaparib (first compound 0.1265 µM), 0.6. For the same cell line, the results for the relative viability with FH535 + Olaparib (first compound 0.4 µM) and in the experiment with FH535 + Olaparib (first compound 1.265 µM) were 0.581 and 0.48, respectively.

On to PC-3 [JPC-3], for which the relative viability in the experiment with FH535 + Palbociclib (first compound 0.04 µM) turned out to be 0.494; in the experiment with FH535 + Palbociclib (first compound 0.1265 µM) it was 0.548; with FH535 + Palbociclib (first compound 0.4 µM), 0.529; with FH535 + Palbociclib (first compound 1.265 µM), 0.548; in the experiment with FH535 + Luminespib (first compound 0.04 µM), 0.794; with FH535 + Luminespib (first compound 0.1265 µM) it was 0.76. Moreover, the relative viability is 0.546 in the experiment with FH535 + Luminespib (first compound 0.4 µM); 0.399 with FH535 + Luminespib (first compound 1.265 µM); 0.982 with FH535 + Linsitinib (first compound 0.04 µM); 0.924 with FH535 + Linsitinib (first compound 0.1265 µM); 0.891 with FH535 + Linsitinib (first compound 0.4 µM); 0.676 with FH535 + Linsitinib (first compound 1.265 µM). The relative viability with FH535 + AZD7762 (first compound 0.04 µM) was determined as 0.773; in the experiment with FH535 + AZD7762 (first compound 0.1265 µM) it was 0.83; with FH535 + AZD7762 (first compound 0.4 µM), 0.656; with FH535 + AZD7762 (first compound 1.265 µM), 0.508; in the experiment with FH535 + Olaparib (first compound 0.04 µM) it was 1.12; in the experiment with FH535 + Olaparib (first compound 0.1265 µM) it was 1.08. Further, the results for the relative viability with FH535 + Olaparib (first compound 0.4 µM) and with FH535 + Olaparib (first compound 1.265 µM) were 1.04 and 0.733, respectively.

For PC-14, the relative viability was found to be 0.512 with FH535 + Palbociclib (first compound 0.04 µM); 0.6 with FH535 + Palbociclib (first compound 0.1265 µM); 0.593 in the experiment with FH535 + Palbociclib (first compound 0.4 µM); 0.548 in the experiment with FH535 + Palbociclib (first compound 1.265 µM); 0.126 with FH535 + Luminespib (first compound 0.04 µM); 0.168 with FH535 + Luminespib (first compound 0.1265 µM). Also, the relative viability in the experiment with FH535 + Luminespib (first compound 0.4 µM) was determined as 0.152; in the experiment with FH535 + Luminespib (first compound 1.265 µM), 0.117; with FH535 + Linsitinib (first compound 0.04 µM), 0.996; with FH535 + Linsitinib (first compound 0.1265 µM) it was 0.937; with FH535 + Linsitinib (first compound 0.4 µM), 0.959; in the experiment with FH535 + Linsitinib (first compound 1.265 µM) it was 0.851. The relative viability was determined as 0.357 with FH535 + AZD7762 (first compound 0.04 µM); 0.416 with FH535 + AZD7762 (first compound 0.1265 µM); 0.245 with FH535 + AZD7762 (first compound 0.4 µM); 0.349 in the experiment with FH535 + AZD7762 (first compound 1.265 µM); 0.242 with FH535 + Olaparib (first compound 0.04 µM); 0.324 with FH535 + Olaparib (first compound 0.1265 µM). For the same cell line, the relative viability with FH535 + Olaparib (first compound 0.4 µM) was found to be 0.297; with FH535 + Olaparib (first compound 1.265 µM), 0.233.

In the case of RERF-LC-KJ, the relative viability in the experiment with FH535 + Palbociclib (first compound 0.04 µM) was 0.992; in the experiment with FH535 + Palbociclib (first compound 0.1265 µM), 1.05; with FH535 + Palbociclib (first compound 0.4 µM), 0.957; with FH535 + Palbociclib (first compound 1.265 µM), 0.846; with FH535 + Luminespib (first compound 0.04 µM), 1.27; with FH535 + Luminespib (first compound 0.1265 µM) it was 1.14. The relative viability with FH535 + Luminespib (first compound 0.4 µM) is 1.13; with FH535 + Luminespib (first compound 1.265 µM), 0.728; with FH535 + Linsitinib (first compound 0.04 µM), 0.872; with FH535 + Linsitinib (first compound 0.1265 µM), 0.896; in the experiment with FH535 + Linsitinib (first compound 0.4 µM) it was 0.854; in the experiment with FH535 + Linsitinib (first compound 1.265 µM), 0.752. Further, the relative viability in the experiment with FH535 + AZD7762 (first compound 0.04 µM) was 0.905; with FH535 + AZD7762 (first compound 0.1265 µM), 1.02; in the experiment with FH535 + AZD7762 (first compound 0.4 µM), 0.931; with FH535 + AZD7762 (first compound 1.265 µM) it was 0.704; with FH535 + Olaparib (first compound 0.04 µM), 0.904; with FH535 + Olaparib (first compound 0.1265 µM), 0.891. For the same cell line, the results for the relative viability in the experiment with FH535 + Olaparib (first compound 0.4 µM) and with FH535 + Olaparib (first compound 1.265 µM) were 0.856 and 0.516, respectively.
